Source: US6028182A, “Methylphosphonic acid esters, processes for their preparation, and their use” (Hoechst Aktiengesellschaft, priority 1993, dated 2000)
Converted amounts (≈) assume the structure as drawn. Like-named read-outs stand apart in the source and are kept apart here.

Experiments:
HIV-1 = test: In-vitro anti HIV test, HIV-1, human T lymphocytes CEM/O; assay type: cell-based, HIV-1 in human T lymphocytes (CEM/O); conditions: Human immunodeficiency virus 1, T-lymphocyte, read-out: Antiviral activity EC50 CEM/O HIV-1
Procedure: (§1) In-vitro HIV tests were carried out with the dinucleoside α-hydroxymethylarylphosphonates 1-3. As a test system human T lymphocytes (CEM/O) were used. The compounds were additionally tested in a thymidine kinase-deficient T-lymphocyte strain (CEM/TK^-). The CEM/O cells were infected both with HIV-1 and with HIV-2. Before the tests, it was ensured that the compounds to be tested were free of free nucleoside (max. 0.5% HPLC) .

HIV-2 [1] = test: In-vitro anti HIV test, HIV-2, human T lymphocytes CEM/O; assay type: cell-based, HIV-2 in human T lymphocytes (CEM/O); conditions: Human immunodeficiency virus 2, T-lymphocyte, read-out: Antiviral activity EC50 CEM/O HIV-2
Procedure: as §1

HIV-2 [2] = test: In-vitro anti HIV test, HIV-2, thymidine kinase-deficient T-lymphocyte strain CEM/TK^-; assay type: cell-based, HIV-2 in human T lymphocytes (CEM/TK^-); conditions: Human immunodeficiency virus 2, CEM-TK(-), read-out: Antiviral activity EC50 CEM/TK^- HIV-2
Procedure: as §1

[3] = Toxicity (cytotoxic action) in human T lymphocytes; assay type: cell-based; conditions: cem t lymphocytes
Procedure: as §1

For `Cc1cn([C@H]2CC[C@@H](COP(=O)(OC[C@@H]3CC[C@H](n4cc(C)c(=O)[nH]c4=O)O3)C(O)c3ccc([N+](=O)[O-])cc3[N+](=O)[O-])O2)c(=O)[nH]c1=O` (some centres unmarked) [Compound 1j, bis(5'-O-2',3'-dideoxythymidine) hydroxy(2,4-dinitrophenyl)methylphosphonate], the EC50 (HIV-1; HIV-1, CEM/O cells) was 2 µg/mL (≈ 2.88 µM), the EC50 (HIV-2 [1]; HIV-2, CEM/O cells) was 3.5 ± 0.71 µg/mL (≈ 5.04 µM) and the EC50 (HIV-2 [2]) was > 100 µg/mL. The CC50 [3] was > 100 µg/mL.

For `Cc1cn([C@H]2CC[C@@H](COP(=O)(OC[C@@H]3CC[C@H](n4cc(C)c(=O)[nH]c4=O)O3)C(O)c3c(Cl)cccc3Cl)O2)c(=O)[nH]c1=O` (some centres unmarked) [Compound 1f, bis(5'-O-2',3'-dideoxythymidine) hydroxy(2,6-dichlorophenyl)methylphosphonate], the EC50 (HIV-1) was 1.4 ± 0.85 µg/mL (≈ 2.08 µM), the EC50 (HIV-2 [1]) was 2 µg/mL (≈ 2.97 µM) and the EC50 (HIV-2 [2]) was > 20 µg/mL. For the same compound, the CC50 ([3]; read-out: Toxicity CC50) was > 20 µg/mL.

In the case of `Cc1cn([C@H]2CC[C@@H](COP(=O)(OC[C@@H]3CC[C@H](n4cc(C)c(=O)[nH]c4=O)O3)C(O)c3ccccc3)O2)c(=O)[nH]c1=O` (some centres unmarked) [Compound 1d, bis(5'-O-2',3'-dideoxythymidine) hydroxy(phenyl)methylphosphonate], the EC50 (HIV-1; HIV-1, CEM/O cells) is reported as 2.93 ± 1.85 µg/mL (≈ 4.85 µM), the EC50 (HIV-2 [1]; HIV-2, CEM/O cells) is reported as 13.3 ± 2.9 µg/mL (≈ 22 µM) and the EC50 (HIV-2 [2]) is reported as > 100 µg/mL. For the same compound, the CC50 ([3]; read-out: Toxicity CC50) was > 100 µg/mL.

In the case of `COc1ccc(C(O)P(=O)(OC[C@@H]2C=C[C@H](n3cc(C)c(=O)[nH]c3=O)O2)OC[C@@H]2C=C[C@H](n3cc(C)c(=O)[nH]c3=O)O2)cc1` (some centres unmarked) [Compound 2b, bis(5'-O-2',3'-dideoxy-2',3'-didehydrothymidine)hydroxy(4-methoxyphenyl)methylphosphonate], the EC50 (HIV-1; HIV-1, CEM/O cells) is reported as 0.1 ± 0.065 µg/mL (≈ 0.159 µM), the EC50 (HIV-2 [1]; HIV-2, CEM/O cells) is reported as 0.12 ± 0.06 µg/mL (≈ 0.19 µM) and the EC50 (HIV-2 [2]) is reported as > 100 µg/mL. The CC50 ([3]; read-out: Toxicity CC50) was > 20 µg/mL.

For `Cc1cn([C@H]2C=C[C@@H](COP(=O)(OC[C@@H]3C=C[C@H](n4cc(C)c(=O)[nH]c4=O)O3)C(O)c3ccc([N+](=O)[O-])cc3[N+](=O)[O-])O2)c(=O)[nH]c1=O` (some centres unmarked) [Compound 2j, bis(5'-O-2',3'-dideoxy-2',3'-didehydrothymidine)hydroxy(2,4-dinitrophenyl)methylphosphonate], the EC50 (HIV-1; HIV-1, CEM/O cells) was 0.16 µg/mL (≈ 0.232 µM), the EC50 (HIV-2 [1]; HIV-2, CEM/O cells) was 0.33 ± 0.24 µg/mL (≈ 0.478 µM) and the EC50 (HIV-2 [2]) was > 100 µg/mL. For the same compound, the CC50 [3] was > 100 µg/mL.

With `Cc1cn([C@H]2C=C[C@@H](COP(=O)(OC[C@@H]3C=C[C@H](n4cc(C)c(=O)[nH]c4=O)O3)C(O)c3ccc(Cl)cc3)O2)c(=O)[nH]c1=O` (some centres unmarked) [Compound 2e, bis(5'-O-2',3'-dideoxy-2',3'-didehydrothymidine)hydroxy(4-chlorophenyl)methylphosphonate] the EC50 (HIV-1; HIV-1, CEM/O cells) was 0.1 ± 0.05 µg/mL (≈ 0.157 µM), the EC50 (HIV-2 [1]; HIV-2, CEM/O cells) was 0.12 ± 0.06 µg/mL (≈ 0.189 µM) and the EC50 (HIV-2 [2]) was > 100 µg/mL. For the same compound, the CC50 ([3]; read-out: Toxicity CC50) was > 100 µg/mL.

For `Cc1cn([C@H]2CC[C@@H](COP(=O)(OC[C@@H]3CC[C@H](n4cc(C)c(=O)[nH]c4=O)O3)C(O)c3ccc([N+](=O)[O-])cc3)O2)c(=O)[nH]c1=O` (some centres unmarked) [Compound 1h, bis(5'-O-2',3'-dideoxythymidine) hydroxy(4-nitrophenyl)methylphosphonate], the EC50 (HIV-1; HIV-1, CEM/O cells) was 2.25 ± 0.35 µg/mL (≈ 3.46 µM), the EC50 (HIV-2 [1]; HIV-2, CEM/O cells) was 3 ± 1.41 µg/mL (≈ 4.62 µM) and the EC50 (HIV-2 [2]) was > 100 µg/mL. The CC50 ([3]; read-out: Toxicity CC50) was > 100 µg/mL.

With `Cc1cn([C@H]2C=C[C@@H](COP(=O)(OC[C@@H]3C=C[C@H](n4cc(C)c(=O)[nH]c4=O)O3)C(O)c3ccc(C#N)cc3)O2)c(=O)[nH]c1=O` (some centres unmarked) [Compound 2g, bis(5'-O-2',3'-dideoxy-2',3'-didehydrothymidine)hydroxy(4-cyanophenyl)methylphosphonate] the EC50 (HIV-1; HIV-1, CEM/O cells) was 0.091 ± 0.065 µg/mL (≈ 0.145 µM), the EC50 (HIV-2 [1]; HIV-2, CEM/O cells) was 0.33 ± 0.24 µg/mL (≈ 0.528 µM) and the EC50 (HIV-2 [2]) was > 100 µg/mL. The CC50 ([3]; read-out: Toxicity CC50) was > 100 µg/mL.

In the case of `Cc1cn([C@H]2CC[C@@H](COP(=O)(OC[C@@H]3CC[C@H](n4cc(C)c(=O)[nH]c4=O)O3)C(O)c3ccc(C#N)cc3)O2)c(=O)[nH]c1=O` (some centres unmarked) [Compound 1g, bis(5'-O-2',3'-dideoxythymidine) hydroxy(4-cyanophenyl)methylphosphonate], the EC50 (HIV-1; HIV-1, CEM/O cells) is reported as 3.93 ± 3.1 µg/mL (≈ 6.24 µM), the EC50 (HIV-2 [1]; HIV-2, CEM/O cells) is reported as 7.7 ± 4.6 µg/mL (≈ 12.2 µM) and the EC50 (HIV-2 [2]) is reported as > 100 µg/mL. The CC50 ([3]; read-out: Toxicity CC50) was > 100 µg/mL.

With `Cc1cn([C@H]2C=C[C@@H](COP(=O)(OC[C@@H]3C=C[C@H](n4cc(C)c(=O)[nH]c4=O)O3)C(O)c3c(Cl)cccc3Cl)O2)c(=O)[nH]c1=O` (some centres unmarked) [Compound 2f, bis(5'-O-2',3'-dideoxy-2',3'-didehydrothymidine)hydroxy(2,6-dichlorophenyl)methylphosphonate] the EC50 (HIV-1; HIV-1, CEM/O cells) was 0.056 ± 0.034 µg/mL (≈ 0.0837 µM), the EC50 (HIV-2 [1]; HIV-2, CEM/O cells) was 0.12 ± 0.06 µg/mL (≈ 0.179 µM) and the EC50 (HIV-2 [2]) was > 20 µg/mL. For the same compound, the CC50 ([3]; read-out: Toxicity CC50) was > 100 µg/mL.

For `Cc1cn([C@H]2CC[C@@H](COP(=O)(OC[C@@H]3CC[C@H](n4cc(C)c(=O)[nH]c4=O)O3)C(O)c3ccc(N(C)C)cc3)O2)c(=O)[nH]c1=O` (some centres unmarked) [Compound 1a, bis(5'-O-2',3'-dideoxythymidine) hydroxy(4-dimethylaminophenyl)methylphosphonate], the EC50 (HIV-1; HIV-1, CEM/O cells) was 3.25 ± 1.06 µg/mL (≈ 5.02 µM), the EC50 (HIV-2 [1]; HIV-2, CEM/O cells) was 7 ± 4.24 µg/mL (≈ 10.8 µM) and the EC50 (HIV-2 [2]) was > 100 µg/mL. The CC50 ([3]; read-out: Toxicity CC50) was > 100 µg/mL.

In the case of `COc1ccc(C(O)P(=O)(OC[C@@H]2CC[C@H](n3cc(C)c(=O)[nH]c3=O)O2)OC[C@@H]2CC[C@H](n3cc(C)c(=O)[nH]c3=O)O2)cc1` (some centres unmarked) [Compound 1b, bis(5'-O-2',3'-dideoxythymidine) hydroxy(4-methoxyphenyl)methylphosphonate], the EC50 (HIV-1; HIV-1, CEM/O cells) is reported as 0.5 µg/mL (≈ 0.788 µM), the EC50 (HIV-2 [1]; HIV-2, CEM/O cells) is reported as 0.55 ± 0.07 µg/mL (≈ 0.867 µM) and the EC50 (HIV-2 [2]) is reported as > 20 µg/mL. For the same compound, the CC50 ([3]; read-out: Toxicity CC50) was > 20 µg/mL.

In the case of `Cc1cn([C@H]2C=C[C@@H](COP(=O)(OC[C@@H]3C=C[C@H](n4cc(C)c(=O)[nH]c4=O)O3)C(O)c3ccc([N+](=O)[O-])cc3)O2)c(=O)[nH]c1=O` (some centres unmarked) [Compound 2h, bis(5'-O-2',3'-dideoxy-2',3'-didehydrothymidine)hydroxy(4-nitrophenyl)methylphosphonate], the EC50 (HIV-1; HIV-1, CEM/O cells) is reported as 0.066 ± 0.048 µg/mL (≈ 0.102 µM), the EC50 (HIV-2 [1]; HIV-2, CEM/O cells) is reported as 0.12 ± 0.06 µg/mL (≈ 0.186 µM) and the EC50 (HIV-2 [2]) is reported as > 100 µg/mL. For the same compound, the CC50 ([3]; read-out: Toxicity CC50) was > 100 µg/mL.

In the case of `Cc1cn([C@H]2CC[C@@H](COP(=O)(OC[C@@H]3CC[C@H](n4cc(C)c(=O)[nH]c4=O)O3)C(O)c3ccc(Cl)cc3)O2)c(=O)[nH]c1=O` (some centres unmarked) [Compound 1e, bis(5'-O-2',3'-dideoxythymidine) hydroxy(4-chlorophenyl)methylphosphonate], the EC50 (HIV-1; HIV-1, CEM/O cells) is reported as 4 µg/mL (≈ 6.26 µM), the EC50 (HIV-2 [1]; HIV-2, CEM/O cells) is reported as 4 µg/mL (≈ 6.26 µM) and the EC50 (HIV-2 [2]) is reported as > 100 µg/mL. The CC50 ([3]; read-out: Toxicity CC50) was > 100 µg/mL.

For `Cc1ccc(C(O)P(=O)(OC[C@@H]2C=C[C@H](n3cc(C)c(=O)[nH]c3=O)O2)OC[C@@H]2C=C[C@H](n3cc(C)c(=O)[nH]c3=O)O2)cc1` (some centres unmarked) [Compound 2c, bis(5'-O-2',3'-dideoxy-2',3'-didehydrothymidine)hydroxy(4-methylphenyl)methylphosphonate], the EC50 (HIV-1; HIV-1, CEM/O cells) was 0.12 ± 0.064 µg/mL (≈ 0.195 µM), the EC50 (HIV-2 [1]; HIV-2, CEM/O cells) was 0.33 ± 0.24 µg/mL (≈ 0.537 µM) and the EC50 (HIV-2 [2]) was > 100 µg/mL. For the same compound, the CC50 ([3]; read-out: Toxicity CC50) was > 20 µg/mL.

With `Cc1ccc(C(O)P(=O)(OC[C@@H]2CC[C@H](n3cc(C)c(=O)[nH]c3=O)O2)OC[C@@H]2CC[C@H](n3cc(C)c(=O)[nH]c3=O)O2)cc1` (some centres unmarked) [Compound 1c, bis(5'-O-2',3'-dideoxythymidine) hydroxy(4-methylphenyl)methylphosphonate] the EC50 (HIV-1; HIV-1, CEM/O cells) was 3.25 ± 1.06 µg/mL (≈ 5.25 µM), the EC50 (HIV-2 [1]; HIV-2, CEM/O cells) was 10 µg/mL (≈ 16.2 µM) and the EC50 (HIV-2 [2]) was > 100 µg/mL. The CC50 ([3]; read-out: Toxicity CC50) was > 100 µg/mL.

In the case of `Cc1cn([C@H]2C=C[C@@H](COP(=O)(OC[C@@H]3C=C[C@H](n4cc(C)c(=O)[nH]c4=O)O3)C(O)c3ccccc3)O2)c(=O)[nH]c1=O` (some centres unmarked) [Compound 2d, bis(5'-O-2',3'-dideoxy-2',3'-didehydrothymidine)hydroxy(phenyl)methylphosphonate], the EC50 (HIV-1; HIV-1, CEM/O cells) is reported as 0.16 µg/mL (≈ 0.266 µM), the EC50 (HIV-2 [1]; HIV-2, CEM/O cells) is reported as 0.19 ± 0.19 µg/mL (≈ 0.316 µM) and the EC50 (HIV-2 [2]) is reported as > 100 µg/mL. The CC50 ([3]; read-out: Toxicity CC50) was > 100 µg/mL.
